From ChEMBL document CHEMBL1128040, “Acyl CoA:cholesterol acyltransferase (ACAT) inhibitors: heterocyclic bioisosteres for the urea group in DuP 128” (Bioorg Med Chem Lett, 1995) come the findings set out here.

In test [1] the target is T1, Sterol O-acyltransferase 1 (Mus musculus, UniProt Q61263).
T1 sequence (Q61263 whole entry): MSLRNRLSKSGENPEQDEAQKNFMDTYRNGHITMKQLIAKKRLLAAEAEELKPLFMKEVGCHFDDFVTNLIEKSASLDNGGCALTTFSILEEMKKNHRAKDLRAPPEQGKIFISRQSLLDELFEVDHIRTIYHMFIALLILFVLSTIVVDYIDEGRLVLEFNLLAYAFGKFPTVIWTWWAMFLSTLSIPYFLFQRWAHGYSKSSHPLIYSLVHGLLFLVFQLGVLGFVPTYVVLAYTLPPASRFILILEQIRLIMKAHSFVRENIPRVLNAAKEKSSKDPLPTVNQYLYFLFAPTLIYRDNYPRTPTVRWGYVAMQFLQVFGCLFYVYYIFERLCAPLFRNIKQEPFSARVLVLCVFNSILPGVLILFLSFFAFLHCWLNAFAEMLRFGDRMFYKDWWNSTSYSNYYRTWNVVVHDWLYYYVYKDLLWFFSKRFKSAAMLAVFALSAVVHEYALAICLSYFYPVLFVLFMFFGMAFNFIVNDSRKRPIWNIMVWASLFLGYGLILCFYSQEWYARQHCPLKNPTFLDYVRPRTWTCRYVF
Kind of test: Inhibition of Acyl coenzyme A:cholesterol acyltransferase in J774 Macrophage cell culture. Type of test: cell-based.

Test [2] has as its target T2, Sterol O-acyltransferase 1 (Rattus norvegicus, UniProt O70536).
T2 sequence (O70536 whole entry): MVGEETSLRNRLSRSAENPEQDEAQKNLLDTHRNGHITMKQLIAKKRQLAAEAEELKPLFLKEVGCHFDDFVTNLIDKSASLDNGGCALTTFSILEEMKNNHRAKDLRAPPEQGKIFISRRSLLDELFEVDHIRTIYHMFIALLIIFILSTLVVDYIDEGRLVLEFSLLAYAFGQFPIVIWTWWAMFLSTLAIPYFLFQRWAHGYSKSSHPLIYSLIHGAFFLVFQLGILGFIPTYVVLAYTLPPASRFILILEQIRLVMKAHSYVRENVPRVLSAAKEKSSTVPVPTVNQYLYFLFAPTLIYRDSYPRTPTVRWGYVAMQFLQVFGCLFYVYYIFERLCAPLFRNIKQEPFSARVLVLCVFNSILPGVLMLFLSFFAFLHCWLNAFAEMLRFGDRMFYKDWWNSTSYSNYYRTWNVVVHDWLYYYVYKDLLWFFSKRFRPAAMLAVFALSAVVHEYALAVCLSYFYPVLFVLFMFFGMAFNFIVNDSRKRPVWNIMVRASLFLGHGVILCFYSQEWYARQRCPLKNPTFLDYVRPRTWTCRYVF
Kind of test: In vitro inhibition of Acyl coenzyme A:cholesterol acyltransferase in rat hepatic microsomes was measured by using AIV assay. Also noted: species or system Liver.

The test system of test [3] is Cricetinae gen. sp. Kind of test: In vivo cholesterol lowering at a single dose of 25 mg/kg in the hamster was determined. It is filed as functional, Cricetulus griseus.
For test [4], the system named is Cricetinae gen. sp. Description: Tested for effective dose required to lower the serum cholesterol levels in hamsters. Type of test: functional, Cricetulus griseus.

Consider `COCCOCCN(CCCCCSc1nc(-c2ccc(OC)cc2)c(-c2ccc(OC)cc2)[nH]1)c1nc2ccccc2o1`, for which the half-inhibitory concentration (IC50) (usually the midpoint of a concentration-inhibition curve) is 80 nM in test [1] and 40 nM in test [2].

In test [1], `CC(CCCSc1nc(-c2ccccc2)c(-c2ccccc2)[nH]1)(CNc1nc2ccccc2o1)c1ccccc1` (configuration not stated) registered an IC50 of 5000 nM. Still for that read-out and setting: in the case of `CCCCN(CCCCCSc1nc(-c2ccc(OC)cc2)c(-c2ccc(OC)cc2)[nH]1)c1nc2cc(Cl)c([N+](=O)[O-])cc2o1` it was 1000 nM. Still for that read-out and setting: then `COc1ccc(-c2nc(SCC(C)(CSc3nc4ccccc4o3)c3ccccc3)[nH]c2-c2ccc(OC)cc2)cc1` (configuration not stated), with 3240 nM; and `COc1ccc(-c2nc(SCCCCCSc3nc4ncncc4[nH]3)[nH]c2-c2ccc(OC)cc2)cc1`, with 880 nM; and `CCCCCCCN(CCCCSc1nc(-c2ccc(OC)cc2)c(-c2ccc(OC)cc2)[nH]1)c1nc2ccccc2o1`, with 500 nM. Consider `CCCCCCCN(CCCCCSc1nc(-c2ccc(OC)cc2)c(-c2ccc(OC)cc2)[nH]1)c1nc2ccccc2o1`, for which the IC50 in test [1] is 80 nM; in test [2] it was 40 nM.

`COc1ccc(-c2nc(SCCCCCn3c(C(C)C)nc4ccccc43)[nH]c2-c2ccc(OC)cc2)cc1`: the concentration for half-maximal inhibition (IC50) in test [1] is 320 nM; in test [2], 230 nM. On the same counts, the results for `COc1ccc(-c2nc(SCCCCCSc3nc(-c4ccc(OC)cc4)c(-c4ccc(OC)cc4)[nH]3)[nH]c2-c2ccc(OC)cc2)cc1` are 200 nM and 220 nM. For `CN(C)c1ccc(-c2nc(SCCCCCSc3nc(-c4ccc(N(C)C)cc4)c(-c4ccc(N(C)C)cc4)[nH]3)[nH]c2-c2ccc(N(C)C)cc2)cc1`, the IC50 is 60 nM in test [1] and 90 nM in test [2]. On the same counts, the results for `c1ccc(-c2nc(SCCCCCSc3nc(-c4ccccc4)c(-c4ccccc4)[nH]3)[nH]c2-c2ccccc2)cc1` are 6920 nM and 30 nM. As for `COc1ccc(-c2nc(SCCCCCn3c4ccccc4c4ccccc43)[nH]c2-c2ccc(OC)cc2)cc1`, the IC50 was 55700 nM in test [1] and 50000 nM in test [2]. `COc1ccc(-c2nc(SCCCCCSc3ncnc4nc[nH]c34)[nH]c2-c2ccc(OC)cc2)cc1` yielded an IC50 in test [1] of 3650 nM.

With `COc1ccc(-c2nc(SCCCCCn3c(Nc4ccccc4)nc4ccccc43)[nH]c2-c2ccc(OC)cc2)cc1`, the figures for the IC50 in test [1] and in test [2] were 640 nM and 750 nM, respectively. With `CN(C)c1ccc(-c2nc(SCCCCCNc3nc4ccccc4o3)[nH]c2-c2ccc(N(C)C)cc2)cc1`, in test [1], the IC50 worked out at 90 nM.

In the case of `CCN(CCCCCSc1nc(-c2ccccc2)c(-c2ccc(SC)cc2)[nH]1)c1nc2ccccc2o1`, the IC50 in test [1] is 500 nM; in test [2], 700 nM. In turn, `Cc1cc(C)n(CCCCCSc2nc(-c3ccc(N(C)C)cc3)c(-c3ccc(N(C)C)cc3)[nH]2)n1` came in with a half-inhibitory concentration (IC50) in test [1] of 250 nM. As to `CC(C)c1nc2ccccc2n1CCCCCSc1nc(-c2ccc(N(C)C)cc2)c(-c2ccc(N(C)C)cc2)[nH]1`, the IC50 in test [1] came to 80 nM; in test [2] it was 400 nM. As to `COc1ccc(-c2nc(SCCCCCSc3nc4c([nH]3)c(=O)n(C)c(=O)n4C)[nH]c2-c2ccc(OC)cc2)cc1`, inhibition in test [1] was half-maximal at 8330 nM (IC50). In test [1], `c1ccc(-c2nc(SCc3cccc(C4(CNc5nc6ccccc6o5)CCCC4)c3)[nH]c2-c2ccccc2)cc1` came in with a half-inhibitory concentration (IC50) of 5900 nM.

In test [1], `c1ccc(-c2nc(SCCCCCSc3ncnc4nc[nH]c34)[nH]c2-c2ccccc2)cc1` showed an IC50 of 7510 nM. As for `COc1ccc(-c2nc(SCCCCCn3c(SC)nc4ccccc43)[nH]c2-c2ccc(OC)cc2)cc1`, the IC50 in test [1] came to 950 nM; in test [2], 1400 nM. `CCN(CCCCCSc1nc(-c2ccc(N(C)C)cc2)c(-c2ccc(N(C)C)cc2)[nH]1)c1nc2ccccc2o1`: the IC50 in test [1] turned out to be 50 nM. Take `CC(C)c1nc2ccccc2n1CCCCCSc1nc(-c2ccccc2)c(-c2ccccc2)[nH]1`: the IC50 in test [1] is 710 nM; in test [2], 690 nM. In the case of `CCCCN(CCCCCSc1nc(-c2ccc(OC)cc2)c(-c2ccc(OC)cc2)[nH]1)c1nc2cc(C(C)(C)C)ccc2o1`, the IC50 was found to be 70 nM in test [1] and 80 nM in test [2].

Compound `CCCCCCCN(CCCCCSc1nc(-c2ccccc2)c(-c2ccccc2)[nH]1)c1nc2ccccc2s1` registered an IC50 in test [1] of 660 nM. Regarding `COc1ccc(-c2nc(SCCCCCSc3nc4ccccc4[nH]3)[nH]c2-c2ccc(OC)cc2)cc1`, the IC50 in test [1] turned out to be 830 nM; in test [2] it was 630 nM.

Compound `CCCCCCCN(CCCCCSc1nc(-c2ccccc2)c(-c2ccccc2)[nH]1)c1nc2ccccc2o1` registered an Activity in the test with Cricetinae gen. sp. [3] of 30%. In addition, the IC50 in test [1] turned out to be 20 nM; in test [2], 300 nM. Consider `CCCCCCCN(CCCCCSc1nc(-c2ccc(OC)cc2)c(-c2ccc(OC)cc2)[nH]1)c1nc2ccccc2[nH]1`, for which the IC50 in test [1] came out at 490 nM; in test [2] it was 90 nM. On the same counts, the results for `CCN(CCCCCSc1nc(-c2ccc(OC)cc2)c(-c2ccc(OC)cc2)[nH]1)c1nc2ccccc2o1` are 90 nM and 140 nM.

As to `CCCCN(CCCCCSc1nc(-c2ccc(OC)cc2)c(-c2ccc(OC)cc2)[nH]1)c1nc2ccccc2o1`, the IC50 in test [1] was determined as 70 nM; in test [2], 80 nM. As to `CCCCCCCN(CCCCCSc1nc(-c2ccccc2)c(-c2ccccc2)[nH]1)C(=O)Nc1ccc(F)cc1F` [LECIMIBIDE], in the test on Cricetinae gen. sp. [4], it took a dose of 3 mg/kg to reach the 50% effect level (ED50). It took 1000 nM to reach half-maximal inhibition in test [1] (IC50).
